Measured values reported in publication PMC6943558, “Covalent Inhibition of the Histamine H3 Receptor” (Molecules, 2019).
Where two headings read alike, the source gives them in different places.

Assays:
[1] = molecular target: T1, hH3R (human histamine H3 receptor) (Homo sapiens, UniProt Q9Y5N1); experiment: [3H]NAMH displacement, cell homogenates; format: biochemical
T1 construct: gene HRH3; transiently transfected cDNA, HEK293T cell homogenates

[2] = molecular target: T2, Nanoluc-H4R (histamine H4 receptor) (Homo sapiens, UniProt Q9H3N8); experiment: NanoBRET displacement of clobenpropit-BODIPY; format: cell-based; settings: fluorescent tracer clobenpropit-BODIPY
T2 construct: gene HRH4; NanoLuc reporter fusion (Nluc-H4R); details not in the main text

[3] = molecular target: T1, hH3R (human histamine H3 receptor); experiment: […]GTPγS binding, cell homogenates; format: biochemical
[4] = molecular target: T1, hH3R (human histamine H3 receptor); experiment: […]GTPγS binding, cell homogenates; format: biochemical; remark: listed apart in the source

T1 sequence (Q9Y5N1 whole entry): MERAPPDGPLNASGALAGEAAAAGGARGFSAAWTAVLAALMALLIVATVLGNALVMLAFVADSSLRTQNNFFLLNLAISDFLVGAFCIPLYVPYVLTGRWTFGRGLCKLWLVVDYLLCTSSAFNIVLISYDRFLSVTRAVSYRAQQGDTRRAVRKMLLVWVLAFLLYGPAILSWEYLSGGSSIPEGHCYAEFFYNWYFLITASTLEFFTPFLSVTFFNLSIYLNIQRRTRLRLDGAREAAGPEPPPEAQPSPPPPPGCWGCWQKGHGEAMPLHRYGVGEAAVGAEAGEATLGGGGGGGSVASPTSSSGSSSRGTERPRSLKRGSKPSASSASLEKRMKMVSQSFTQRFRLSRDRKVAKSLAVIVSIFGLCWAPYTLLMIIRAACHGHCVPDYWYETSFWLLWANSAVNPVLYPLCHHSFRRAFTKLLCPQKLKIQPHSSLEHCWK

Ki ([1]; read-out: pKi (converted))	Structure (SMILES)	also measured
> 10 µM	C=Cc1nc(-c2ccccc2)cc(N2CCN(C)CC2)n1 [compound 1, VUF14480]	
0.0794 µM	Cc1nc(-c2ccccc2)cc(N2CCN(C)CC2)n1 [compound 2, 2]	
0.0501 µM	CC(C)c1cc(N2CC(N(C)C)C2)nc(N)n1 [compound 10, 10]	
0.2 µM	CC(C)c1cc(N2CCN(C3CCC3)CC2)nc(N)n1 [compound 11, 11]	
0.316 µM	Cc1cc(N2CCN(C3CCC3)CC2)nc(N)n1 [compound 12, 12]	
> 10 µM	C#Cc1nc(C)cc(N2CCN(C3CCC3)CC2)n1 [compound 20, 20]	
> 10 µM	C=Cc1nc(C(C)C)cc(N2CC(N(C)C)C2)n1 [compound 21, 21]	
3.16 µM	C=Cc1nc(C(C)C)cc(N2CCN(C3CCC3)CC2)n1 [compound 22, 22]	
3.98 µM	C=Cc1nc(C)cc(N2CCN(C3CCC3)CC2)n1 [compound 23, 23]	
> 10 µM	Cc1nc(C(C)C)cc(N2CC(N(C)C)C2)n1 [compound 34, 34]	
> 10 µM	CCc1nc(C(C)C)cc(N2CC(N(C)C)C2)n1 [compound 35, 35]	
1.26 µM	Cc1nc(C(C)C)cc(N2CCN(C3CCC3)CC2)n1 [compound 36, 36]	
3.16 µM	CCc1nc(C(C)C)cc(N2CCN(C3CCC3)CC2)n1 [compound 37, 37]	
1.26 µM	Nc1cccc(N2CCN(C3CCC3)CC2)c1 [compound 42, 3-(4-Cyclobutylpiperazin-1-yl)aniline]	no tracer displacement up to 10 μM [2]: > 10 µM
0.631 µM	O=C(CCl)Nc1cccc(N2CCN(C3CCC3)CC2)c1 [compound 43, 43]	
0.316 µM	S=C=Nc1cccc(N2CCN(C3CCC3)CC2)c1 [compound 44, 1-Cyclobutyl-4-(3-isothiocyanatophenyl)piperazine]	EC50 [3]: 0.0794 µM; IC50 [4]: 0.794 µM; no tracer displacement up to 10 μM [2]: > 10 µM
	NCCc1c[nH]cn1 [histamine]	Ki ([1]; 50 mM Tris-HCl pH 7.4, 25 °C, vehicle-pretreated homogenates): Radioligand displacement curves of [^3H]NAMH with histamine on cell homogenates
